Laboratory results taken from patent US9029076B2, “Tissue preservation and fixation method” (George Mason Research Foundation, Inc., priority 2006, dated 2015).
Entries after “also recorded” stand apart in the source; their conditions may differ.

Key:
mTOR (S2448) = test: RPA of fixed versus snap frozen samples; conditions: cellular equivalents printed on reverse phase protein microarrays, FIG. 7
From the text: We compared phosphoproteins from real time, room temperature shipping conditions in a methanol:water or ethanol:water fixative to samples that were snap frozen.

phosphoproteins [1] = conditions: for phosphoprotein endpoints, room temperature shipping in fixative versus snap frozen: real time, room temperature shipping conditions, FIGS. 6A, 6B and 7
IKappa-Ba ser32 = test: RPA phosphoprotein level after 24 h storage of tumor needle samples in preservatives; conditions: 24 h in preservative at 4° C., relative normalized RPA intensity
Method: (§1) The RPA format, originated by the present inventors and collaborators (see, e.g., Paweletz et al. (2001) Oncogene 20, 1981-1989), immobilizes an individual test sample in a miniature dilution curve such that an array contains hundreds of different patient samples, treatments, or time points. In the RPA format, each array is incubated with one detection protein (e.g. anti-peptide antibody), and a single analyte endpoint is measured and directly compared across multiple samples. Briefly, the lysates are printed on glass backed nitrocellulose array slides (FAST Slides Whatman, Florham Park, N.J. or ONCYTE slides Grace BioLabs, Bend, Oreg.) using a robotic array printing device (GMS 417 arrayer (Affymetrix, Santa Clara, Calif. or Aushon 2470, Aushon Biosystems, Burlington, Mass. equipped with 125-500 μm pins). Each lysate is printed in a dilution curve representing neat, 1:2, 1:4, 1:8, 1:16 and negative control dilutions. The slides are stored with desiccant (Drierite, W. A. Hammond, Xenia, Ohio) at −20° C. prior to immunostaining.
(§2) Immunostaining is performed on an automated slide stainer per manufacturer's instructions (Autostainer CSA kit, Dako, Carpinteria, Calif.). Each slide is incubated with a single primary antibody at room temperature for 30 minutes. Polyclonal primary antibodies can be, e.g.: GSK3α/β Tyr279/216 (Invitrogen-Biosource, Carlsbad, Calif.), BCL-2, HIF-1α (BD, Franklin Lakes, N.J.), 4EBP1, FKHR ser256, eIF4E, eIF4E ser209, eIF4G, eIF4G ser1108, IGFR-β, IRS-1, IRS-2, IRS-1 ser612, SGK, Bak, Bax, BAD, BAD ser112, BAD ser136, BAD ser155, B-Raf, mTOR, mTOR ser2448, p70S6 Thr389, p70S6 kinase, p70S6 ser371, S6 kinase ser240/244, Akt, Akt ser473, Akt Thr308, 4EBP1 ser65, 4EBP1 ser70, and 4EBP1 Thr37/46 (Cell Signaling Technology, Danvers, Mass.). A negative control slide is incubated with antibody diluent. Secondary antibody can be goat anti-rabbit IgG H+L (1:5000) (Vector Labs, Burlingame, Calif.).
(§3) Each array is scanned, spot intensity analyzed, data normalized, and a standardized, single data value can be generated for each sample on the array (Image Quant v5.2, GE Healthcare, Piscataway, N.J.) or MicroVigene v2.8, Vigene Tech, Billerica, Mass.). Spot intensity is integrated over a fixed area. Local area background intensity is calculated for each spot with the unprinted adjacent slide background. […] The Ward method for two-way hierarchical clustering can be performed using JMP v5.0 (SAS Institute, Cary N.C.). Wilcoxon two-sample rank sum test can be used to compare values between two groups. P values less than 0.05 are considered significant. When one cannot assume a normal distribution of the variables, non-parametric methods are used. Kaplan-Meier (log-rank) survival estimates for univariate survival analysis can be used.
(§4) Briefly, tumor tissues from gastrinoma/liver, mesothelioma and parathyroid tumors were sampled by five needle passes and placed into the preservatives listed in Table 5. […] Immediate lysis and denaturation of the cellular proteins were accomplished by standard Pierce Tissue Protein Extraction Buffer (T-PER), with additional SDS, denaturing reagents, and detergents. The cell samples were stored 24 h in the listed preservatives at 4° C. and then the listed phosphoprotein endpoints were measured. […] Some values dropped to zero while others are markedly elevated compared to the freshly lysed cell baseline. […] They were unable to stabilize the phosphorylation state of key signal proteins over a storage period of 24 hours, which is a typical time delay for cell or tissue shipment. Numbers in the table are relative normalized intensity values using the RPA technology described herein.

CC3 Asp175 = test: as above; conditions: 24 h in preservative at 4° C., relative normalized RPA intensity
Method: as §1, §2, §3, §4

AKT ser473 = test: as above; conditions: 24 h in preservative at 4° C., relative normalized RPA intensity
Method: as §1, §2, §3, §4

p38 T180/182 = test: as above; conditions: 24 h in preservative at 4° C., relative normalized RPA intensity
Method: as §1, §2, §3, §4

CREB ser133 = test: as above; conditions: 24 h in preservative at 4° C., relative normalized RPA intensity
Method: as §1, §2, §3, §4

AKT Thr308 = test: as above; conditions: 24 h in preservative at 4° C., relative normalized RPA intensity
Method: as §1, §2, §3, §4

EGFR Y1148 = test: as above; conditions: 24 h in preservative at 4° C., relative normalized RPA intensity
Method: as §1, §2, §3, §4

IRS-1 ser612 = test: as above; conditions: 24 h in preservative at 4° C., relative normalized RPA intensity
Method: as §1, §2, §3, §4

ERK T202/Y204 = test: as above; conditions: 24 h in preservative at 4° C., relative normalized RPA intensity
Method: as §1, §2, §3, §4

GSK3ab ser21/9 = test: as above; conditions: 24 h in preservative at 4° C., relative normalized RPA intensity
Method: as §1, §2, §3, §4

phosphoproteins [2] = test: Overall phosphoprotein preservation of FNA / tumor needle samples stored 24 h at 4° C.; conditions: compared to directly lysed cell baseline
Method: Fine Needle Aspirate (FNA) samples were stored for 24 hours at 4° C. in each of the chemicals/chemical solutions. The cellular samples were further processed for reverse phase protein microarray analysis. […] Each set of 4 horizontal spots by 2 vertical spots represent an original and its replicate sample, printed on the array in two-fold dilutions, for each FNA sample. The dilution series represents undiluted, 1:2, 1:4 and 1:8 dilutions of each sample.
A variety of types of tumor tissues were incubated in a series of conventional preservatives to determine if the preservatives were able to stabilize selected phosphoproteins.

[3] = test system: cultured cell line (A549); test: Phosphorylation over time with phosphatase inhibitor in cell culture model; format: cell-based
Method: (§5) The phosphorylation rises rapidly to a high level in less than 40 minutes, which is followed by cell death.
(§6) These continuing metabolic processes present problems for the preservation of phosphoproteins in a sample. For example, the inventors have discovered that the addition of a phosphatase inhibitor alone, designed to block the removal of protein phosphate groups by endogenous phosphatases, can cause unchecked and highly abnormal upward accumulation of abnormal levels of phosphoproteins, reaching a lethal level.

EGFR Y1173 = test: as above; format: cell-based; conditions: living cells exposed to phosphatase inhibitor, FIG. 10A
Method: as §5, §6

[4] = Gastrinoma/liver tumor, Lysis Buffer = frozen immediately after lysis
[5] = Parathyroid tumor, Lysis Buffer = frozen immediately after lysis

With CO [20-50% methanol in water, methanol] the “level of mTOR (S2448) phosphorylation, fixed versus snap frozen” value (mTOR (S2448)) was “equivalence”.
For CCO [ethanol:water, ethanol], the “phosphoprotein endpoints, room temperature shipping in fixative versus snap frozen” value (phosphoproteins [1]) was “equivalence of the two methods”.
For CCO [70% ethanol, ethanol], the “IKappa-Ba ser32 Normalized data” value (IKappa-Ba ser32; [4]) was 28.36, the “IKappa-Ba ser32 Normalized data” value (IKappa-Ba ser32; Mesothelioma) was 25.09 and the “IKappa-Ba ser32 Normalized data” value (IKappa-Ba ser32; [5]) was 32.97. The “CC3 Asp175 Normalized data” value (CC3 Asp175; [4]) was 5.09, the “CC3 Asp175 Normalized data” value (CC3 Asp175; Mesothelioma) was 15.92 and the “CC3 Asp175 Normalized data” value (CC3 Asp175; [5]) was 19.16. For the same molecule, the “AKT ser473 Normalized data” value (AKT ser473; [4]) was 0.00, the “AKT ser473 Normalized data” value (AKT ser473; Mesothelioma) was 10.94 and the “AKT ser473 Normalized data” value (AKT ser473; [5]) was 7.18. The “p38 T180/182 Normalized data” value (p38 T180/182; [4]) was 27.50, the “p38 T180/182 Normalized data” value (p38 T180/182; Mesothelioma) was 49.07 and the “p38 T180/182 Normalized data” value (p38 T180/182; [5]) was 45.63. The “CREBser133 Normalized data” value (CREB ser133; [4]) was 103.07, the “CREBser133 Normalized data” value (CREB ser133; Mesothelioma) was 53.05 and the “CREBser133 Normalized data” value (CREB ser133; [5]) was 67.91. The “AKT Thr308 Normalized data” value (AKT Thr308; [4]) was 0.00, the “AKT Thr308 Normalized data” value (AKT Thr308; Mesothelioma) was 15.15 and the “AKT Thr308 Normalized data” value (AKT Thr308; [5]) was 18.57. The “EGFR Y1148 Normalized data” value (EGFR Y1148; [4]) was 39.95, the “EGFR Y1148 Normalized data” value (EGFR Y1148; Mesothelioma) was 30.71 and the “EGFR Y1148 Normalized data” value (EGFR Y1148; [5]) was 47.58. The “IRS-1 ser612 Normalized data” value (IRS-1 ser612; [4]) was 19.74, the “IRS-1 ser612 Normalized data” value (IRS-1 ser612; Mesothelioma) was 12.16 and the “IRS-1 ser612 Normalized data” value (IRS-1 ser612; [5]) was 15.92. For the same molecule, the “ERK T202/Y204 Normalized data” value (ERK T202/Y204; [4]) was 11.51, the “ERK T202/Y204 Normalized data” value (ERK T202/Y204; Mesothelioma) was 30.74 and the “ERK T202/Y204 Normalized data” value (ERK T202/Y204; [5]) was 37.27. The “GSK3ab ser21/9 Normalized data” value (GSK3ab ser21/9; [4]) was 19.01, the “GSK3ab ser21/9 Normalized data” value (GSK3ab ser21/9; Mesothelioma) was 31.87 and the “GSK3ab ser21/9 Normalized data” value (GSK3ab ser21/9; [5]) was 60.83. For the same molecule, the “preservation of phosphoproteins overall” value (phosphoproteins [2]) was “significant, reproducible degradation of the phospho endpoints”.
pervanadate was tested, and the “phosphorylation of phospho-endpoints over time” value ([3]; A549 cells, FIG. 10) was “hyperphosphorylation over time; also recorded: large surge of phosphorylation”, the “fate of cells after phosphorylation surge” value ([3]; living cells exposed to phosphatase inhibitor, FIG. 10A) was “cell death” and the “time for EGFR Y1173 phosphorylation to rise to a high level” value (EGFR Y1173) was “less than 40 minutes”.
With CCO [ethanol] the “preservation of phosphoproteins overall” value (phosphoproteins [2]) was “do not adequately preserve the phosphoproteins”.
With OC[C@H]1O[C@H](O[C@H]2O[C@H](CO)[C@@H](O)[C@H](O)[C@H]2O)[C@H](O)[C@@H](O)[C@@H]1O [15% trehalose, Trehalose] the “IKappa-Ba ser32 Normalized data” value (IKappa-Ba ser32; [4]) was 32.99, the “IKappa-Ba ser32 Normalized data” value (IKappa-Ba ser32; Mesothelioma) was 13.29 and the “IKappa-Ba ser32 Normalized data” value (IKappa-Ba ser32; [5]) was 24.12. The “CC3 Asp175 Normalized data” value (CC3 Asp175; [4]) was 11.19, the “CC3 Asp175 Normalized data” value (CC3 Asp175; Mesothelioma) was 6.82 and the “CC3 Asp175 Normalized data” value (CC3 Asp175; [5]) was 7.76. For the same molecule, the “AKT ser473 Normalized data” value (AKT ser473; [4]) was 0.00, the “AKT ser473 Normalized data” value (AKT ser473; Mesothelioma) was 7.86 and the “AKT ser473 Normalized data” value (AKT ser473; [5]) was 0.26. For the same molecule, the “p38 T180/182 Normalized data” value (p38 T180/182; [4]) was 36.95, the “p38 T180/182 Normalized data” value (p38 T180/182; Mesothelioma) was 7.39 and the “p38 T180/182 Normalized data” value (p38 T180/182; [5]) was 30.53. The “CREBser133 Normalized data” value (CREB ser133; [4]) was 55.11, the “CREBser133 Normalized data” value (CREB ser133; Mesothelioma) was 10.01 and the “CREBser133 Normalized data” value (CREB ser133; [5]) was 21.50. The “AKT Thr308 Normalized data” value (AKT Thr308; [4]) was 19.93, the “AKT Thr308 Normalized data” value (AKT Thr308; Mesothelioma) was 0.95 and the “AKT Thr308 Normalized data” value (AKT Thr308; [5]) was 5.38. The “EGFR Y1148 Normalized data” value (EGFR Y1148; [4]) was 95.78, the “EGFR Y1148 Normalized data” value (EGFR Y1148; Mesothelioma) was 21.03 and the “EGFR Y1148 Normalized data” value (EGFR Y1148; [5]) was 26.55. The “IRS-1 ser612 Normalized data” value (IRS-1 ser612; [4]) was 25.51, the “IRS-1 ser612 Normalized data” value (IRS-1 ser612; Mesothelioma) was 0.00 and the “IRS-1 ser612 Normalized data” value (IRS-1 ser612; [5]) was 0.05. For the same molecule, the “ERK T202/Y204 Normalized data” value (ERK T202/Y204; [4]) was 17.01, the “ERK T202/Y204 Normalized data” value (ERK T202/Y204; Mesothelioma) was 0.00 and the “ERK T202/Y204 Normalized data” value (ERK T202/Y204; [5]) was 9.34. The “GSK3ab ser21/9 Normalized data” value (GSK3ab ser21/9; [4]) was 32.18, the “GSK3ab ser21/9 Normalized data” value (GSK3ab ser21/9; Mesothelioma) was 7.80 and the “GSK3ab ser21/9 Normalized data” value (GSK3ab ser21/9; [5]) was 10.36.
With CO [methanol: water, methanol] the “RPA spot intensities, fixed versus frozen tissue” value (phosphoproteins [1]; FIG. 6A) was “equivalent spot intensities” and the “phosphoprotein endpoints, room temperature shipping in fixative versus snap frozen” value (phosphoproteins [1]) was “equivalence of the two methods”.
